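Dose response: 5 concentrations. Exposure: 48 h. Format: 96-well plates. Endpoint: linear interpolation; highest concentration if not reached. Abbreviation: GI50, concentration required for 50% inhibition of growth. TGI is the concentration that stops growth completely.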
These compounds were tested on SK-MEL-28 melanoma (assay: growth of human tumour cells (NCI), 48 h).
For `CNCCCNc1ccnc2cc(Cl)ccc12`, the GI50 was 15.5 µM and the TGI was 34.6 µM. With `O=c1[nH]c(O)c(C=Nc2ccc(-c3nc4ccccc4o3)cc2)c(=O)[nH]1` the GI50 was 16.6 µM and the TGI was 47 µM. `COc1ccc(-c2cc(=O)oc3c4c(ccc23)OCN(Cc2ccc(F)cc2)C4)cc1` was tested, and the GI50 was 15.1 µM and the TGI was 30.7 µM.

These compounds were tested on SK-MEL-5 melanoma (assay: growth of human tumour cells (NCI), 48 h).
For `COc1nc(=O)n(C2C=CC(=O)O2)cc1F` (centres undefined), the GI50 was 4.91 µM and the TGI was 18.6 µM. In the case of `CNCCCNc1ccnc2cc(Cl)ccc12`, the GI50 is reported as 16.4 µM and the TGI is reported as 31.6 µM. With `O=c1[nH]c(O)c(C=Nc2ccc(-c3nc4ccccc4o3)cc2)c(=O)[nH]1` the GI50 was 44.8 µM and the TGI was over 100 µM. In the case of `COc1ccc(-c2cc(=O)oc3c4c(ccc23)OCN(Cc2ccc(F)cc2)C4)cc1`, the GI50 is reported as 12.7 µM and the TGI is reported as 25.4 µM.

The compounds below were run on SK-OV-3 ovarian (assay: growth of human tumour cells (NCI), 48 h).
Work on `COc1nc(=O)n(C2C=CC(=O)O2)cc1F` (centres undefined) yielded a GI50 of 25.8 µM and a TGI of 62.3 µM. Compound `CNCCCNc1ccnc2cc(Cl)ccc12` has a GI50 of 21.9 µM and a TGI of 60.8 µM. Compound `O=c1[nH]c(O)c(C=Nc2ccc(-c3nc4ccccc4o3)cc2)c(=O)[nH]1` has a GI50 of over 100 µM and a TGI of over 100 µM. In the case of `COc1ccc(-c2cc(=O)oc3c4c(ccc23)OCN(Cc2ccc(F)cc2)C4)cc1`, the GI50 is reported as 19.1 µM and the TGI is reported as 52.9 µM.

What follows are compounds tested on SN12C renal (assay: growth of human tumour cells (NCI), 48 h).
With `COc1nc(=O)n(C2C=CC(=O)O2)cc1F` (centres undefined) the GI50 was 11.6 µM and the TGI was 25.7 µM. Work on `CNCCCNc1ccnc2cc(Cl)ccc12` yielded a GI50 of 24.6 µM and a TGI of over 100 µM. `O=c1[nH]c(O)c(C=Nc2ccc(-c3nc4ccccc4o3)cc2)c(=O)[nH]1` gave a GI50 of over 100 µM and a TGI of over 100 µM. Compound `COc1ccc(-c2cc(=O)oc3c4c(ccc23)OCN(Cc2ccc(F)cc2)C4)cc1` has a GI50 of 15.6 µM and a TGI of 32.2 µM.

Each compound was assayed on SNB-19 CNS (assay: growth of human tumour cells (NCI), 48 h).
`COc1nc(=O)n(C2C=CC(=O)O2)cc1F` (centres undefined) showed a GI50 of 22.3 µM and a TGI of 57 µM. `CNCCCNc1ccnc2cc(Cl)ccc12` gave a GI50 of 36.1 µM and a TGI of over 100 µM. `O=c1[nH]c(O)c(C=Nc2ccc(-c3nc4ccccc4o3)cc2)c(=O)[nH]1` was tested, and the GI50 was over 100 µM and the TGI was over 100 µM. With `COc1ccc(-c2cc(=O)oc3c4c(ccc23)OCN(Cc2ccc(F)cc2)C4)cc1` the GI50 was 15.6 µM and the TGI was 36.4 µM.

What follows are compounds tested on SNB-75 CNS (assay: growth of human tumour cells (NCI), 48 h).
In the case of `COc1nc(=O)n(C2C=CC(=O)O2)cc1F` (centres undefined), the GI50 is reported as 14.3 µM and the TGI is reported as 43.1 µM. Work on `CNCCCNc1ccnc2cc(Cl)ccc12` yielded a GI50 of 16.4 µM and a TGI of 82 µM. `O=c1[nH]c(O)c(C=Nc2ccc(-c3nc4ccccc4o3)cc2)c(=O)[nH]1` showed a GI50 of over 100 µM and a TGI of over 100 µM. In the case of `COc1ccc(-c2cc(=O)oc3c4c(ccc23)OCN(Cc2ccc(F)cc2)C4)cc1`, the GI50 is reported as 6.62 µM and the TGI is reported as 25.3 µM.

These compounds were tested on SR leukemia (assay: growth of human tumour cells (NCI), 48 h).
For `COc1nc(=O)n(C2C=CC(=O)O2)cc1F` (centres undefined), the GI50 was 1.87 µM and the TGI was 5.86 µM. In the case of `CNCCCNc1ccnc2cc(Cl)ccc12`, the GI50 is reported as 22.5 µM and the TGI is reported as 70.8 µM. `O=c1[nH]c(O)c(C=Nc2ccc(-c3nc4ccccc4o3)cc2)c(=O)[nH]1` gave a GI50 of 44.5 µM and a TGI of over 100 µM. `COc1ccc(-c2cc(=O)oc3c4c(ccc23)OCN(Cc2ccc(F)cc2)C4)cc1` was tested, and the GI50 was 13 µM and the TGI was 39.9 µM.

Reference: PubChem BioAssay (NCI)
